{"source": "patent US9381246B2", "about": "“Cancer therapy” (TriAct Therapeutics, Inc., priority 2013, dated 2016)", "key": {"Beagle dogs [1]": {"test_system": "Beagle dogs", "assay": "Multi-dose toxicity (dose escalation), dogs", "assay_type": "in vivo"}, "KDR (VEGFR2)": {"molecular_target": "KDR (VEGFR2) (Homo sapiens, UniProt P35968)", "sequence (P35968 20-1356)": "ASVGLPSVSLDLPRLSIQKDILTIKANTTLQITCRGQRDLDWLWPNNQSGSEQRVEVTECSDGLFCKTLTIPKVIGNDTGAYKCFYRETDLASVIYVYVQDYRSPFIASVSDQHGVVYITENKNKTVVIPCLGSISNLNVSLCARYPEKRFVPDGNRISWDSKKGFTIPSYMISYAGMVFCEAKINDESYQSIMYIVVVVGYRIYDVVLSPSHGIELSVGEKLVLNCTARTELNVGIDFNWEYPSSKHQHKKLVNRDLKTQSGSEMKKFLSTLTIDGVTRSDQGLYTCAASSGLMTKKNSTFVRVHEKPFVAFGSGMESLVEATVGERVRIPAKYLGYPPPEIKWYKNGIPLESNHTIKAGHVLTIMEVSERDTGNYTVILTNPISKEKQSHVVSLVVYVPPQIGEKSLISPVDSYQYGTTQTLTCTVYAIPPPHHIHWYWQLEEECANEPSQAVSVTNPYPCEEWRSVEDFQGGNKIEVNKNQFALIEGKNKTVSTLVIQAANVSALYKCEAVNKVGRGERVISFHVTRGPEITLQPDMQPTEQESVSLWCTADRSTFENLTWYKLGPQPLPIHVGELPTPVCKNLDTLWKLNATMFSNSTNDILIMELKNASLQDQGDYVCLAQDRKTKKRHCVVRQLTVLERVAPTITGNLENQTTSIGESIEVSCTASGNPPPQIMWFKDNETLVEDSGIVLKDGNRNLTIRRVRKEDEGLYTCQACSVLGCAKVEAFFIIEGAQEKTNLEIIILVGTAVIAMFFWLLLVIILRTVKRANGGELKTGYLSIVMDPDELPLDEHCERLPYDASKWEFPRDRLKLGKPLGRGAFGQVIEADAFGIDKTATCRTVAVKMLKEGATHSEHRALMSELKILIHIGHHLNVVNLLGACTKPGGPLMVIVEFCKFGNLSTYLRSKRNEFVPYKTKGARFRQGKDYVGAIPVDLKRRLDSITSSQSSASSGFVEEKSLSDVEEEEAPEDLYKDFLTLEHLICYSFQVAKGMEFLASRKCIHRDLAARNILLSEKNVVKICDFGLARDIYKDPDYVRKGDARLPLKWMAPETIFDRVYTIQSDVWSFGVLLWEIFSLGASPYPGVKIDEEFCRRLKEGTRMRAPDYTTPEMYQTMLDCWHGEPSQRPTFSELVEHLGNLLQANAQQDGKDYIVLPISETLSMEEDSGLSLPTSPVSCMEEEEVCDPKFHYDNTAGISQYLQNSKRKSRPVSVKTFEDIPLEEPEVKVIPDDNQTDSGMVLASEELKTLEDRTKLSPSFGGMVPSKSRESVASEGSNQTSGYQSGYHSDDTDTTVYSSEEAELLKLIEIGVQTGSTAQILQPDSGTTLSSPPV", "assay": "KDR (VEGFR2) kinase inhibition", "assay_type": "biochemical", "details": "data from 3 sources", "description": "The inhibition of these targets appears to be via a mechanism of action that is distinct from approved tyrosine kinase inhibitors (TKIs)."}, "[2]": {"test_system": "New Zealand white rabbits", "details": "rabbit, in vivo, po, 14 days"}, "xenografts of Table 3": {"test_system": "xenografts of Table 3", "assay": "Efficacy in the xenografts of Table 3", "assay_type": "in vivo", "details": "NCI-H209, AsPC-1, HPAC, SW850, MDA-MB435, Her-2 over expressing breast, LoVo, C4-I, neuroblastoma, NCI-H1264"}, "in vivo [3]": {"assay": "in vivo", "details": "CR: 1CD BR, rat, po"}, "Sprague Dawley rats": {"test_system": "Sprague Dawley rats", "assay": "28-day multi-dose oral toxicity, rats", "assay_type": "in vivo, rat", "experimental": "A rat 28-day multi-dose toxicology assessment was conducted at 15, 150, or 500 mg/kg/day."}, "Beagle dogs [4]": {"test_system": "Beagle dogs", "assay": "Multi-dose oral toxicity, dogs", "assay_type": "in vivo, dog", "experimental": "A dog 28-day multi-dose toxicology assessment was also conducted."}, "IGF1R [5]": {"molecular_target": "T1, IGF1R (Homo sapiens, UniProt P08069)", "assay": "IGF-1R tyrosine kinase assay with poly Glu4:Tyr1 (PGT) substrate, Lineweaver-Burke analysis", "assay_type": "biochemical", "set-up": "made in house; host or cells: CHO-IGFR cells", "experimental": "FIG. 1. […] Tyrosine kinase substrate Glu4: Tyr1 was bound to 96 well plates. […] Phosphorylation of substrate was determined by anti-phosphotyrosine ELISA**.\nA Lineweaver-Burke analysis was used to calculate Km and Vmax for this reaction (FIG. 1).\nSoluble IGF-1R, partially purified from CHO-IGFR cells were incubated with 10 nM IGF-1 in Kinase Buffer (50 mM, pH 7.4, 150 mM NaCl, 0.1% Triton X-100, 0.1% gelatin, 5 mM MnCl2, 8 mM MgCl2, and 1 mM PMSF) for 1 hr at room temperature (RT). […] Labeled ^32P-ATP (20 μM) was added in the presence of varying concentrations of the tyrosine kinase substrate poly Glu4:Tyr1 (PGT) (0.005 to 4 mg/ml). The reaction was stopped after 30 min at 22° C. by blotting 40 μl of the reaction mixture onto Whatman 3 MM papers. Filter papers were air dried and then subjected to the following washing protocol in 10% TCA with 10 mM Na4P2O7: 15 min at 4° C., 15 min at 20° C., 5 min boiling, 5 min boiling, followed by a short rinse with acetone. The filter papers were then allowed to air dry completely. ^32P incorporation into the substrate was determined by liquid scintillation counting."}, "[6]": {"test_system": "second pancreatic xenograft", "assay": "Second pancreatic xenograft tumor growth (FIG. 19)", "assay_type": "in vivo", "description": "FIG. 19. […] Tumor volume is shown (y axis) at various time days post tumor challenge (x axis)."}, "in vivo [7]": {"assay": "in vivo", "details": "New Zealand white, rabbit, po"}, "IGF1R [8]": {"molecular_target": "T1, IGF1R", "assay": "ATP binding competition assay", "experimental": "Next, competition with ATP was determined directly by employing an assay previously validated to quantify the Km for small molecule kinase inhibitors compete for ATP binding to various kinases (Goldstein et al. 2008)."}, "H1975 NSCLC cells": {"test_system": "H1975 NSCLC cells", "assay": "Soft agar colony formation", "assay_type": "cell-based", "details": "H1975, Iressa®-resistant NSCLC cells (T790M), 11 days", "experimental": "FIG. 10. […] Colony formation was determined and results reported normalized to control values as illustrated in FIG. 10.\nColony formation was determined and results reported normalized to control values as illustrated in FIG. 10."}, "[9]": {"assay": "Phase 1b and 2a clinical data", "assay_type": "in vivo", "description": "It provides a competitive advantage over previously described compounds in that the present inventors have identified a novel proposed mechanism of action (MOA), which has been market validated (EGFR & cMet) and clinically validated (IGFR). […] Dose selection has also been determined."}, "IGF-IR": {"test_system": "IGF-IR", "assay": "Total protein levels over time-course (FIG. 9)", "assay_type": "cell-based", "details": "2, 4, 8 and 24 hours after treatment, compared to control"}, "Met": {"test_system": "Met", "assay": "Total protein levels over time-course (FIG. 9)", "assay_type": "cell-based", "details": "2, 4, 8 and 24 hours after treatment, compared to control"}, "HER2": {"test_system": "HER2", "assay": "Total protein levels over time-course (FIG. 9)", "assay_type": "cell-based", "details": "2, 4, 8 and 24 hours after treatment, compared to control"}, "EGFR [10]": {"molecular_target": "EGFR (Homo sapiens, UniProt P00533)", "sequence (P00533 25-1210)": "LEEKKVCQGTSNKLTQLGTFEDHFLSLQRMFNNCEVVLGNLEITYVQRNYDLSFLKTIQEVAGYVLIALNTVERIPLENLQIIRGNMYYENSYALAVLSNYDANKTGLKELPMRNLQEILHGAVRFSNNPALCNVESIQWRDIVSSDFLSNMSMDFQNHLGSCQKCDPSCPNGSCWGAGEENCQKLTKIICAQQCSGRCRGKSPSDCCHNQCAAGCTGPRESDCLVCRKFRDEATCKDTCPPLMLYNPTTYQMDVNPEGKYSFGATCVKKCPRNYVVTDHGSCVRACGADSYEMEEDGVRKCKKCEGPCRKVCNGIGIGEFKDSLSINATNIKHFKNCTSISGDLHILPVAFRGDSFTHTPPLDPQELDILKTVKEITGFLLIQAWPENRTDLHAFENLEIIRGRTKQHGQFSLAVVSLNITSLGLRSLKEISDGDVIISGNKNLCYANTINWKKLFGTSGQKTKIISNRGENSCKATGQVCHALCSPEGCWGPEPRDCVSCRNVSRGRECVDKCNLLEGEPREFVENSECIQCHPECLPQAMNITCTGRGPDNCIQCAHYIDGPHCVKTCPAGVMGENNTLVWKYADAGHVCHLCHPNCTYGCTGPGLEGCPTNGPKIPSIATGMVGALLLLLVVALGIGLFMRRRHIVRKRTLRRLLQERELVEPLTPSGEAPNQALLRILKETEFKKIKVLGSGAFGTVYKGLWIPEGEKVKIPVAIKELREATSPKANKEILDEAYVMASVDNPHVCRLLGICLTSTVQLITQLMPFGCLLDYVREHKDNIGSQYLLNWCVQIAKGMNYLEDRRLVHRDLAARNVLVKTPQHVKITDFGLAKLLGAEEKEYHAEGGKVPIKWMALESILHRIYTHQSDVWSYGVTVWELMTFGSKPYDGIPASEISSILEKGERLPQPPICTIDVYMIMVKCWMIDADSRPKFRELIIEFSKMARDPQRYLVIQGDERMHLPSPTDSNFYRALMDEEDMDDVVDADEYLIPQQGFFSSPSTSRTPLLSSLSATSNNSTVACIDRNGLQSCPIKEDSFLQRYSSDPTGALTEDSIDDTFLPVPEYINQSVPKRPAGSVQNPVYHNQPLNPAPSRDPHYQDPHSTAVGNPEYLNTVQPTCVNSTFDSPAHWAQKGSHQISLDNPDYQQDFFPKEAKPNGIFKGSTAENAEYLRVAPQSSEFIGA", "assay": "EGFR kinase inhibition / substrate phosphorylation (FIG. 6, 7)", "assay_type": "biochemical"}, "EGFR [11]": {"test_system": "EGFR", "assay": "Total protein levels over time-course (FIG. 9)", "assay_type": "cell-based", "details": "2, 4, 8 and 24 hours after treatment, compared to control"}, "[12]": {"test_system": "Additional NSCLC cell lines", "assay": "Growth of additional NSCLC cell lines (FIG. 12)", "assay_type": "cell-based", "details": "growth compared to untreated cells", "description": "FIG. 12. […] Growth is shown on the y axis compared to untreated cells."}, "NSCLC xenograft": {"test_system": "NSCLC xenograft", "assay": "NSCLC xenograft tumor growth (FIG. 16)", "assay_type": "in vivo", "details": "3 weeks post-tumor challenge", "description": "FIG. 16. […] Tumor volume is shown (y axis) at […], 2.5 and 3 weeks post tumor challenge (x axis)."}, "[13]": {"test_system": "Tarceva® resistant cell lines (Kras mutants, EGFR mutants, T790M mutation)", "assay": "Growth of Tarceva resistant cell lines (FIG. 11)", "assay_type": "cell-based", "details": "growth compared to untreated cells", "description": "FIG. 11. […] Growth is shown on the y axis compared to untreated cells. A description of the mutations in the cell lines are identified below in Table 1."}, "IGF1R [14]": {"molecular_target": "T1, IGF1R", "assay": "IGF1R kinase inhibition (FIG. 7)", "assay_type": "biochemical", "details": "data from 3 sources"}, "pancreatic xenograft": {"test_system": "pancreatic xenograft", "assay": "Pancreatic xenograft tumor growth (FIG. 18)", "assay_type": "in vivo", "description": "FIG. 18. […] Tumor volume is shown (y axis) at various time days post tumor challenge (x axis)."}, "c-met": {"molecular_target": "c-met (Homo sapiens, UniProt P08581)", "sequence (P08581 25-1390)": "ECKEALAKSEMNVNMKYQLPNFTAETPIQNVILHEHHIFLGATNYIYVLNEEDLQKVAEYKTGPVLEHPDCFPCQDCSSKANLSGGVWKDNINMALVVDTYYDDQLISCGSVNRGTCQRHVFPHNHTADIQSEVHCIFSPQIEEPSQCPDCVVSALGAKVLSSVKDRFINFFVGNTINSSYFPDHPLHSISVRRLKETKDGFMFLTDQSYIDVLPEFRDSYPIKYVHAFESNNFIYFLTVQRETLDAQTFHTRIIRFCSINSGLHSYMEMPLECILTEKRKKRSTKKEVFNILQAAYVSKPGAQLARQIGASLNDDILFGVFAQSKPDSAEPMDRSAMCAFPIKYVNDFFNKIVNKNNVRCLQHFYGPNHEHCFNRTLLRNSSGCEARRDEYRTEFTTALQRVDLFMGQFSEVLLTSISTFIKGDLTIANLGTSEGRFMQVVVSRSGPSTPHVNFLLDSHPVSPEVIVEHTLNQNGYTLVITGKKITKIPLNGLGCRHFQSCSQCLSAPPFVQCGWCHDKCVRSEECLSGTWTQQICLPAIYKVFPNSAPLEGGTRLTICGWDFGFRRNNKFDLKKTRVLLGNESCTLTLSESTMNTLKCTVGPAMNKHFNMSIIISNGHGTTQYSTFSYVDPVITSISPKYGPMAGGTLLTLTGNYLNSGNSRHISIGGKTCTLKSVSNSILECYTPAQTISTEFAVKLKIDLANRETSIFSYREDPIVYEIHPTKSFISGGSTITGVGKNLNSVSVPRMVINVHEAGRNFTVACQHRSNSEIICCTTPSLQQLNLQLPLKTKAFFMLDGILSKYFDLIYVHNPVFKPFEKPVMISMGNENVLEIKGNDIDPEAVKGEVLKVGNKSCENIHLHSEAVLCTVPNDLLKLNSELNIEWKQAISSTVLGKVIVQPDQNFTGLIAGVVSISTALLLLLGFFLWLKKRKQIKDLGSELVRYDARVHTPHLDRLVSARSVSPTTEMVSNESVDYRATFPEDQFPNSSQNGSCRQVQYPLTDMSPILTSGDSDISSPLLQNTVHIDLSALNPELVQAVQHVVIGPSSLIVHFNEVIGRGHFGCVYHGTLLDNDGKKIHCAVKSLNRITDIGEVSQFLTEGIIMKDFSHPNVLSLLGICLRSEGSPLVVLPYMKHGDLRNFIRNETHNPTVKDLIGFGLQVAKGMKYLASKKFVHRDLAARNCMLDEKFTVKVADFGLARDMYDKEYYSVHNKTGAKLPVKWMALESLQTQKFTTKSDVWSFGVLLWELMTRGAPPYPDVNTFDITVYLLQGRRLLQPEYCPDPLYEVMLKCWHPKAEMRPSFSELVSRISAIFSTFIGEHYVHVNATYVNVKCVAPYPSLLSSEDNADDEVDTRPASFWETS", "assay": "c-met kinase inhibition (FIG. 8)", "assay_type": "biochemical", "details": "data from 3 sources"}, "breast xenograft": {"test_system": "breast xenograft", "assay": "Breast xenograft tumor growth (FIG. 17)", "assay_type": "in vivo", "description": "FIG. 17. […] Tumor volume is shown (y axis) at various time days post tumor challenge (x axis)."}, "[15]": {"details": "dog 28-day multi-dose toxicology assessment"}}, "note": "“Also recorded” adds a separate entry of the source."}
{"smiles": "CC(Cc1ccc(O)c(O)c1)C(C)Cc1ccc(O)c(O)c1", "note": "(centres unmarked) [NDGA, nordihydroguaiaretic acid]", "values": [{"measurement": "Tolerability in the repeated dose phase", "setting": "Beagle dogs [1]; dog, in vivo, po, 300 mg/kg/day", "value": "fairly well tolerated,"}, {"measurement": "Clinical findings in the escalation phase", "setting": "Beagle dogs [1]; dogs, single oral (capsule) doses of 600 and 1200 mg/kg", "value": "Significant emesis,"}, {"measurement": "Inhibition of KDR (VEGFR2)", "setting": "KDR (VEGFR2)", "value": "inhibition"}, {"measurement": "No-effect level", "setting": "[2]", "value": "dose of 1000 mg/kg"}, {"measurement": "Efficacy in xenografts", "setting": "xenografts of Table 3", "value": "efficacy was shown"}, {"measurement": "LD50 at 14 days", "setting": "in vivo [3]", "value": "> 5000", "unit": "mg/kg"}, {"measurement": "Findings at 150 and 500 mg/kg/day", "setting": "Sprague Dawley rats; 150 and 500 mg/kg/day, 28 days, listed as TT-100", "value": "Stomach and duodenal hypertrophy/alterations; also recorded: adverse events"}, {"measurement": "No-effect dose level", "setting": "Sprague Dawley rats; oral (gavage), once daily for 28 days", "value": 15, "unit": "mg/kg/day"}, {"measurement": "Necropsy findings", "setting": "Beagle dogs [4]; [15]", "value": "intestinal mucosal reddening"}, {"measurement": "No observable effect level (NOEL)", "setting": "Beagle dogs [4]; [15]", "value": 60, "unit": "mg/kg/day"}, {"measurement": "Tolerability of all of the other doses", "setting": "Beagle dogs [4]; dog, in vivo", "value": "well-tolerated in this"}, {"measurement": "Mechanism of action of IGF-1R inhibition", "setting": "IGF1R [5]; varying PGT substrate, 20 μg/ml NDGA", "value": "substrate competition"}, {"measurement": "Vmax", "setting": "IGF1R [5]; with NDGA (+TT100), 10 nM IGF-1, 20 μM ATP", "value": 2.0, "unit": "pmol/min"}, {"measurement": "Tumor growth (tumor volume) compared to control", "setting": "[6]", "value": "inhibited growth"}, {"measurement": "LD50 at 14 days", "setting": "in vivo [7]; female", "value": 1650, "unit": "mg/kg"}, {"measurement": "LD50 at 14 days", "setting": "in vivo [7]; male", "value": 2500, "unit": "mg/kg"}, {"measurement": "Amount of ATP bound to IGF-1R", "setting": "IGF1R [8]; 30 μM NDGA", "value": "unchanged"}, {"measurement": "Interference with binding of a labeled ATP analog to recombinant IGF-1R", "setting": "IGF1R [8]; any concentration of NDGA up to 100 μM", "value": "did not interfere; also recorded: does not interfere"}, {"measurement": "Activity on colony formation in soft agar", "setting": "H1975 NSCLC cells", "value": "active"}, {"measurement": "Safety and tolerability", "setting": "[9]", "value": "safe and well tolerated"}, {"measurement": "Total protein level of IGF-IR", "setting": "IGF-IR", "value": "reduction in total protein levels"}, {"measurement": "Total protein level of Met", "setting": "Met", "value": "reduction in total protein levels"}, {"measurement": "Total protein level of HER2", "setting": "HER2", "value": "reduction in total protein levels"}, {"measurement": "Inhibition of EGFR / substrate phosphorylation", "setting": "EGFR [10]", "value": "inhibits substrate phosphorylation; also recorded: inhibition"}, {"measurement": "Total protein level of EGFR", "setting": "EGFR [11]", "value": "reduction in total protein levels"}, {"measurement": "Sensitivity of growth to NDGA", "setting": "[12]", "value": "sensitive"}, {"measurement": "Tumor growth (tumor volume) compared to control", "setting": "NSCLC xenograft", "value": "inhibit tumor growth"}, {"measurement": "Sensitivity of growth to NDGA", "setting": "[13]", "value": "sensitive"}, {"measurement": "Inhibition of IGF1R", "setting": "IGF1R [14]", "value": "inhibition"}, {"measurement": "Tumor growth (tumor volume) compared to control", "setting": "pancreatic xenograft", "value": "inhibited growth"}, {"measurement": "Inhibition of cMet", "setting": "c-met", "value": "inhibition"}, {"measurement": "Tumor growth (tumor volume) compared to control", "setting": "breast xenograft", "value": "inhibited growth"}]}
